These results are taken from ChEMBL document CHEMBL5727633, “Therapeutic compounds” (2020).

CREB-binding protein, sequence (Q92793 whole entry): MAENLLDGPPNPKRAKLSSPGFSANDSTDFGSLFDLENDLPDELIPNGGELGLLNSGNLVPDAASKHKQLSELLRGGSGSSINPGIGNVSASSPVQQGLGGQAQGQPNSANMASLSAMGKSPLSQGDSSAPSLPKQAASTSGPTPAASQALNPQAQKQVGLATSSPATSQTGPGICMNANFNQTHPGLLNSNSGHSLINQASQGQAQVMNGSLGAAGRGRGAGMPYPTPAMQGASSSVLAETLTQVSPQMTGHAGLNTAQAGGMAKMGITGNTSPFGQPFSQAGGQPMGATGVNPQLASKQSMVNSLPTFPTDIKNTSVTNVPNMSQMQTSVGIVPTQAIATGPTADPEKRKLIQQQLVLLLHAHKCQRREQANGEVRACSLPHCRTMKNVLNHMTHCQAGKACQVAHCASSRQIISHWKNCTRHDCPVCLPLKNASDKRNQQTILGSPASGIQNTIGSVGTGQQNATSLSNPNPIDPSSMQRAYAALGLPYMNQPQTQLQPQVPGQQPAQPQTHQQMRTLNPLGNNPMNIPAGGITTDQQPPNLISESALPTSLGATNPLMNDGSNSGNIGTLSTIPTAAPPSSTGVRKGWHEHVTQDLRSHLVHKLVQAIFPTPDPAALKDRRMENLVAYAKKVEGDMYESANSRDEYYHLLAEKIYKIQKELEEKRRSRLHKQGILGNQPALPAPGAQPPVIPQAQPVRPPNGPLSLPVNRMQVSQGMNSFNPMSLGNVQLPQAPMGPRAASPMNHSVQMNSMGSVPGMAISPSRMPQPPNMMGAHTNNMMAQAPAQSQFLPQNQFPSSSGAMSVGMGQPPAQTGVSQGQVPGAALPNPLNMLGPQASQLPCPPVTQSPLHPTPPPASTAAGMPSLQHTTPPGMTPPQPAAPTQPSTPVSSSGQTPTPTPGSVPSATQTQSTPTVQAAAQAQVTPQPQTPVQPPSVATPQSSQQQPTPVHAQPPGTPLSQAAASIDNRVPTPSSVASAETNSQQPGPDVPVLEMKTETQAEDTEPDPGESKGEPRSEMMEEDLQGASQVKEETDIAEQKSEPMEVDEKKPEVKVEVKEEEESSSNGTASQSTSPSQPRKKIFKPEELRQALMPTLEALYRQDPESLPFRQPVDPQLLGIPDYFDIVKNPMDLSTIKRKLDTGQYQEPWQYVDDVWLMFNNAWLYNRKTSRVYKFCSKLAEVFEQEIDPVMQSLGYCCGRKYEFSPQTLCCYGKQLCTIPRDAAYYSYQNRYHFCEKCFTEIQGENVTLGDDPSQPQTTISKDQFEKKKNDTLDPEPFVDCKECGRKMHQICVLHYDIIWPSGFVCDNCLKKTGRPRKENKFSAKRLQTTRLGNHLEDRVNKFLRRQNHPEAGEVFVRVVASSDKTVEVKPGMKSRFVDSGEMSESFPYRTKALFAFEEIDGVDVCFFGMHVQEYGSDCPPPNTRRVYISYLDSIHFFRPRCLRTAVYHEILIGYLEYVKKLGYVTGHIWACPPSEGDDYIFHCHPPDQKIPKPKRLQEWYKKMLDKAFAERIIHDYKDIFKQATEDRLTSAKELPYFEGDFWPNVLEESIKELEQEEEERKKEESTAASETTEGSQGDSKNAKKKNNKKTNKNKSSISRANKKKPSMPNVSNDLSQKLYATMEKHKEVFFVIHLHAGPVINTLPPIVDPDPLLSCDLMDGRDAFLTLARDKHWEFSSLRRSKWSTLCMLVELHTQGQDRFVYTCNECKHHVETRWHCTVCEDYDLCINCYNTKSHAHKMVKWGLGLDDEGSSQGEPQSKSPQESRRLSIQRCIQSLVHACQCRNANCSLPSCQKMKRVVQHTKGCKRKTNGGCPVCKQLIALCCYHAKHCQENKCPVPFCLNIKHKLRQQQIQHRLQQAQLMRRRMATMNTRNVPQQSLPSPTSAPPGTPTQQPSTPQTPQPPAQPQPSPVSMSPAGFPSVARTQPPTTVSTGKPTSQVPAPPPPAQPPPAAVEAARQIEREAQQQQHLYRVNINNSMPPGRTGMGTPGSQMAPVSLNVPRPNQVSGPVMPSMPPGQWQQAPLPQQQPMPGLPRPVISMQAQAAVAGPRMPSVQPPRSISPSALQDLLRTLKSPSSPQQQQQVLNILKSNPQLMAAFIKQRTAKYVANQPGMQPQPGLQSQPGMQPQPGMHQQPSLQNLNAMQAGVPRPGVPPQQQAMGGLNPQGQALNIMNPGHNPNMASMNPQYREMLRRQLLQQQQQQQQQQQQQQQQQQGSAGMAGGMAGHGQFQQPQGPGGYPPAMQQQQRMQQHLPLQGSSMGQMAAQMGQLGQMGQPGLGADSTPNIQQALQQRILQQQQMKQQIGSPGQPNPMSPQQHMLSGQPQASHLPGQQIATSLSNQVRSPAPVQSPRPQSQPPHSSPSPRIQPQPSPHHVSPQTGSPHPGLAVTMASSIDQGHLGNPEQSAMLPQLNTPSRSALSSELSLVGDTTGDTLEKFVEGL

The first assay addresses Bromodomain-containing protein 4 (Homo sapiens, UniProt O60885). Kind of assay: In Vitro Enzyme Inhibition Assay-BRD4 Inhibition: Inhibition of BRD4 was determined as described previously. See, e.g., U.S. Pat. No. 9,034,900.
Take `Cn1cc(-c2cnn(CC3CC3)c2)c(-c2ccc(C(=O)O)cc2)cc1=O`: the IC50 (as a rule, the point on the concentration scale where inhibition reaches its midpoint) was > 5000 nM.

A further assay addresses CREB-binding protein (Homo sapiens, UniProt Q92793). Kind of assay: In Vitro CBP Inhibition: The CBP-inhibitory activity of the compounds described herein was determined by calculating the IC50. More specifically, CBP inhibitor activity was assayed as follows: CBP was cloned and expressed in E. coli as His-tag protein and purified by Nickel affinity and gel-filtration chromatography. […] CBP binding and inhibition is assessed by monitoring the interaction of biotinylated H4-tetraacetyl peptide (AnaSpec, H4K5/8/12/16(Ac), biotin-labeled) with the target using the AlphaScreen technology (Perkin Elmer). In a 384-well ProxiPlate CBP (50 nM final) was combined with peptide (20 nM final) in 50 mM HEPES (pH 7.3), 10 mM NaCl, 0.25 mM TCEP, 0.1% (w/v) BSA, and 0.005% (w/v) Brij-35 either in the presence of DMSO (final 0.4% DMSO) or compound dilution series in DMSO. After 20 min incubation at room temp, Alpha-streptavidin donor beads and Nickel Chelate acceptor beads were added to a final concentration of 5 μg/mL.
Turning to `CCOc1cc(=O)n(C)cc1-c1cnn(C(C)c2cccc(-c3cnn(C)c3)c2)c1` (configuration not stated), the IC50 was < 500 nM.
With `Cn1ccc(-c2cc(=O)n(C)cc2-c2cnn(-c3cccc(F)c3C#N)c2)cc1=O`, the IC50 is < 500 nM.
In the case of `Cn1cc(-c2cnn(-c3ccccc3-c3nnn[nH]3)c2)c(-c2ccc(F)cc2)cc1=O`, the IC50 is < 500 nM.
On to `Cn1cc(-c2cnn(Cc3ccccc3)c2)c(-c2cccc(Cl)c2)cc1=O`, for which the half-maximal inhibitory concentration (IC50) was < 500 nM.
Still for that read-out and setting: for `COc1ccc(-c2cc(=O)n(C)cc2-c2cnn(-c3ccccc3C#N)c2)cc1` the value was < 500 nM.
In the case of `COc1cc(-c2cc(=O)n(C)cc2-c2cnn(-c3ccccc3C(=O)NC#N)c2)ccn1`, the IC50 is < 500 nM.
Still for that read-out and setting: next, `COc1ccc(C(=O)O)c(-n2cc(-c3cn(C)c(=O)cc3-c3ccc(Cl)cc3)cn2)c1`: < 500 nM.
Still for that read-out and setting: for `Cn1cc(-c2cnn(CC3CC3)c2)c(-c2ccc(C(=O)O)cc2)cc1=O` the value was < 500 nM; for `COc1ccc(-c2cc(=O)n(C)cc2-c2cnn(-c3ccccc3C(=O)NC#N)c2)cn1`, < 500 nM.
Regarding `Cc1cc(-c2cnn(C(c3ccccc3)C3CC3)c2)cn(C)c1=O` (configuration not stated), the IC50 is < 500 nM.
Take `Cn1cc(-c2cnn(Cc3ccccc3)c2)c(-c2cnn(CC(=O)O)c2)cc1=O`: the IC50 is < 500 nM.
Same read-out and setting: for `Cn1cc(-c2cnn(CC3CC3)c2)c(-c2ccc(C(F)(F)F)cc2)cc1=O` the value was < 500 nM.
The same measure, in the same setting: for `Cn1cc(-c2cnn(-c3ccccc3C(=O)O)c2)c(-c2ccc(Cl)cc2)cc1=O` the value was < 500 nM; for `Cn1cc(-c2cnn(CC3CCCCC3)c2)c(-c2ccccc2)cc1=O`, < 500 nM; for `COc1ccc(C#N)c(-n2cc(-c3cn(C)c(=O)cc3-c3ccc(Cl)cc3)cn2)c1`, < 500 nM.
On the same count and under the same terms, next, `CNC(=O)Cn1cc(-c2cn(C)c(=O)cc2-c2ccccc2)cn1`: < 500 nM; `CNC(=O)c1ccc(-c2cc(=O)n(C)cc2-c2cnn(CC3CC3)c2)cc1`: < 500 nM.
For `COc1ccc(-c2cc(=O)n(C)cc2-c2cnn(-c3ccccc3C(=O)O)c2)cc1`, the IC50 was < 500 nM.
In the case of `Cn1cc(-c2cnn(Cc3ccccc3)c2)c(-c2ccc(Cl)cc2)cc1=O`, the IC50 is < 500 nM.
The same measure, in the same setting: next, `COc1ccccc1-c1cc(=O)n(C)cc1-c1cnn(Cc2ccccc2)c1`: > 5000 nM.
On the same count and under the same terms, next, `Cn1cc(COc2cc(=O)n(C)cc2-c2cnn(-c3ccccc3Cl)c2)cn1`: < 500 nM.
